The supplement of paper PMC11451515

Assays:
Conditions in all cases: 48 h
[1] = system: SEM cells; experiment: cell viability relative to DMSO control; higher = less cytotoxic
Outline: (§1)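 Cells were incubated for 48 h at 37°C before CellTiter-Glo One luminescence was read. The cells were NOMO1 or SEM (500 cells/well) or P12-Ichikawa (1000 cells/well) leukemia cells, adapted for at least four passages in each medium and seeded in 1536-well plates (5 μl). Dosing used library compounds in DMSO applied by pin over 11 threefold points, 47 μM to 0.79 nM. Viability is the per-plate percentage of DMSO wells, with cell-free wells as background.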

[2] = system: NOMO1; experiment: as above
Outline: as §1

[3] = system: P12-Ichikawa; experiment: as above
Outline: as §1

[4] = system: SEM cells; experiment: AUC of viability dose-response curve (% viability x log10 dose units); higher = less sensitive
Outline: (§2)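 Over 48 h at 37°C, leukemia cells in 1536-well plates (500 or 1000 cells/well), adapted to each medium, received library compounds in DMSO at 11 threefold doses from 47 μM to 0.79 nM. CellTiter-Glo One luminescence, normalised per plate to DMSO and cell-free wells, was fitted by a four-parameter log-logistic function of log10 dose. The area under the curve was then integrated by trapezoidal rule, after scaling curves above full viability and removing those that failed quality control.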

[5] = system: NOMO1; experiment: as above
Outline: as §2

[6] = system: P12-Ichikawa; experiment: as above
Outline: as §2

[7] = HPLM + 10% dialyzed FBS, 0.000781 µM
[8] = HPLM + 10% dialyzed FBS, 0.00234 µM
[9] = HPLM + 10% dialyzed FBS, 0.00702 µM
[10] = HPLM + 10% dialyzed FBS, 0.0211 µM
[11] = HPLM + 10% dialyzed FBS, 0.0632 µM
[12] = HPLM + 10% dialyzed FBS, 0.19 µM
[13] = HPLM + 10% dialyzed FBS, 0.569 µM
[14] = HPLM + 10% dialyzed FBS, 1.71 µM
[15] = HPLM + 10% dialyzed FBS, 5.12 µM
[16] = HPLM + 10% dialyzed FBS, 15.4 µM
[17] = HPLM + 10% dialyzed FBS, 46.1 µM
[18] = RPMI 5 mM glucose + 10% FBS, 0.000781 µM
[19] = RPMI 5 mM glucose + 10% FBS, 0.00234 µM
[20] = RPMI 5 mM glucose + 10% FBS, 0.00702 µM
[21] = RPMI 5 mM glucose + 10% FBS, 0.0211 µM
[22] = RPMI 5 mM glucose + 10% FBS, 0.0632 µM
[23] = RPMI 5 mM glucose + 10% FBS, 0.19 µM
[24] = RPMI 5 mM glucose + 10% FBS, 0.569 µM
[25] = RPMI 5 mM glucose + 10% FBS, 1.71 µM
[26] = RPMI 5 mM glucose + 10% FBS, 5.12 µM
[27] = RPMI 5 mM glucose + 10% FBS, 15.4 µM
[28] = RPMI 5 mM glucose + 10% FBS, 46.1 µM
[29] = RPMI 5 mM glucose + 10% dialyzed FBS, 0.000781 µM
[30] = RPMI 5 mM glucose + 10% dialyzed FBS, 0.00234 µM
[31] = RPMI 5 mM glucose + 10% dialyzed FBS, 0.00702 µM
[32] = RPMI 5 mM glucose + 10% dialyzed FBS, 0.0211 µM
[33] = RPMI 5 mM glucose + 10% dialyzed FBS, 0.0632 µM
[34] = RPMI 5 mM glucose + 10% dialyzed FBS, 0.19 µM
[35] = RPMI 5 mM glucose + 10% dialyzed FBS, 0.569 µM
[36] = RPMI 5 mM glucose + 10% dialyzed FBS, 1.71 µM
[37] = RPMI 5 mM glucose + 10% dialyzed FBS, 5.12 µM
[38] = RPMI 5 mM glucose + 10% dialyzed FBS, 15.4 µM
[39] = RPMI 5 mM glucose + 10% dialyzed FBS, 46.1 µM
[40] = RPMI 5 mM glucose + 10% dialyzed FBS

SMILES: Cn1cc(-c2ccc3nnc(C(F)(F)c4ccc5ncccc5c4)n3n2)cn1
- cell viability [1, 7]: 103%
- cell viability [1, 8]: 117%
- cell viability [1, 9]: 115%
- cell viability [1, 10]: 99.6%
- cell viability [1, 11]: 111%
- cell viability [1, 12]: 108%
- cell viability [1, 13]: 113%
- cell viability [1, 14]: 106%
- cell viability [1, 15]: 106%
- cell viability [1, 16]: 95.4%
- cell viability [1, 17]: 82%
- cell viability [1, 18]: 123%
- cell viability [1, 19]: 115%
- cell viability [1, 20]: 120%
- cell viability [1, 21]: 112%
- cell viability [1, 22]: 126%
- cell viability [1, 23]: 132%
- cell viability [1, 24]: 126%
- cell viability [1, 25]: 123%
- cell viability [1, 26]: 114%
- cell viability [1, 27]: 121%
- cell viability [1, 28]: 81.5%
- cell viability [1, 29]: 96%
- cell viability [1, 30]: 114%
- cell viability [1, 31]: 104%
- cell viability [1, 32]: 102%
- cell viability [1, 33]: 105%
- cell viability [1, 34]: 111%
- cell viability [1, 35]: 98.6%
- cell viability [1, 36]: 97.2%
- cell viability [1, 37]: 94.8%
- cell viability [1, 38]: 90.5%
- cell viability [1, 39]: 67.2%
- cell viability [2, 7]: 115%
- cell viability [2, 8]: 99.1%
- cell viability [2, 9]: 97.5%
- cell viability [2, 10]: 107%
- cell viability [2, 11]: 101%
- cell viability [2, 12]: 106%
- cell viability [2, 13]: 105%
- cell viability [2, 14]: 101%
- cell viability [2, 15]: 95.4%
- cell viability [2, 16]: 103%
- cell viability [2, 17]: 69.3%
- cell viability [2, 18]: 110%
- cell viability [2, 19]: 106%
- cell viability [2, 20]: 135%
- cell viability [2, 21]: 109%
- cell viability [2, 22]: 107%
- cell viability [2, 23]: 106%
- cell viability [2, 24]: 99.6%
- cell viability [2, 25]: 94.9%
- cell viability [2, 26]: 106%
- cell viability [2, 27]: 96.6%
- cell viability [2, 28]: 87.2%
- cell viability [2, 29]: 87.3%
- cell viability [2, 30]: 98.4%
- cell viability [2, 31]: 111%
- cell viability [2, 32]: 97.8%
- cell viability [2, 33]: 99.2%
- cell viability [2, 34]: 98.6%
- cell viability [2, 35]: 119%
- cell viability [2, 36]: 108%
- cell viability [2, 37]: 99.5%
- cell viability [2, 38]: 96.2%
- cell viability [2, 39]: 81.3%
- cell viability [3, 7]: 116%
- cell viability [3, 8]: 117%
- cell viability [3, 9]: 117%
- cell viability [3, 10]: 116%
- cell viability [3, 11]: 113%
- cell viability [3, 12]: 115%
- cell viability [3, 13]: 109%
- cell viability [3, 14]: 108%
- cell viability [3, 15]: 101%
- cell viability [3, 16]: 95.8%
- cell viability [3, 17]: 82.9%
- cell viability [3, 18]: 114%
- cell viability [3, 19]: 117%
- cell viability [3, 20]: 117%
- cell viability [3, 21]: 124%
- cell viability [3, 22]: 109%
- cell viability [3, 23]: 113%
- cell viability [3, 24]: 113%
- cell viability [3, 25]: 106%
- cell viability [3, 26]: 107%
- cell viability [3, 27]: 101%
- cell viability [3, 28]: 81.7%
- cell viability [3, 29]: 119%
- cell viability [3, 30]: 112%
- cell viability [3, 31]: 120%
- cell viability [3, 32]: 118%
- cell viability [3, 33]: 113%
- cell viability [3, 34]: 119%
- cell viability [3, 35]: 118%
- cell viability [3, 36]: 112%
- cell viability [3, 37]: 101%
- cell viability [3, 38]: 102%
- cell viability [3, 39]: 85.6%
- AUC of viability dose-response curve ([4]; HPLM + 10% dialyzed FBS): 463
- AUC of viability dose-response curve ([4]; RPMI 5 mM glucose + 10% FBS): 469
- AUC of viability dose-response curve [4, 40]: 455
- AUC of viability dose-response curve ([5]; HPLM + 10% dialyzed FBS): 469
- AUC of viability dose-response curve ([5]; RPMI 5 mM glucose + 10% FBS): 435
- AUC of viability dose-response curve [5, 40]: 470
- AUC of viability dose-response curve ([6]; HPLM + 10% dialyzed FBS): 447
- AUC of viability dose-response curve ([6]; RPMI 5 mM glucose + 10% FBS): 452
- AUC of viability dose-response curve [6, 40]: 454

SMILES: CC(=O)N1CCN(c2ccc(OCc3nn(C)c(C)c3-c3cccc4c(CCCOc5cccc6ccccc56)c(C(=O)O)n(Cc5cccnc5)c34)cc2)CC1
- cell viability [1, 7]: 92.6%
- cell viability [1, 8]: 91.9%
- cell viability [1, 9]: 106%
- cell viability [1, 10]: 112%
- cell viability [1, 11]: 107%
- cell viability [1, 12]: 126%
- cell viability [1, 13]: 115%
- cell viability [1, 14]: 120%
- cell viability [1, 15]: 122%
- cell viability [1, 16]: 108%
- cell viability [1, 17]: 108%
- cell viability [1, 18]: 87.6%
- cell viability [1, 19]: 78%
- cell viability [1, 20]: 86.4%
- cell viability [1, 21]: 93.6%
- cell viability [1, 22]: 81.8%
- cell viability [1, 23]: 103%
- cell viability [1, 24]: 108%
- cell viability [1, 25]: 115%
- cell viability [1, 26]: 105%
- cell viability [1, 27]: 104%
- cell viability [1, 28]: 84.7%
- cell viability [1, 29]: 101%
- cell viability [1, 30]: 85.1%
- cell viability [1, 31]: 115%
- cell viability [1, 32]: 112%
- cell viability [1, 33]: 119%
- cell viability [1, 34]: 127%
- cell viability [1, 35]: 112%
- cell viability [1, 36]: 115%
- cell viability [1, 37]: 109%
- cell viability [1, 38]: 113%
- cell viability [1, 39]: 104%
- cell viability [2, 7]: 107%
- cell viability [2, 8]: 130%
- cell viability [2, 9]: 119%
- cell viability [2, 10]: 117%
- cell viability [2, 11]: 138%
- cell viability [2, 12]: 128%
- cell viability [2, 13]: 126%
- cell viability [2, 14]: 85.2%
- cell viability [2, 15]: 32%
- cell viability [2, 16]: 23.9%
- cell viability [2, 17]: 22.7%
- cell viability [2, 18]: 110%
- cell viability [2, 19]: 125%
- cell viability [2, 20]: 120%
- cell viability [2, 21]: 124%
- cell viability [2, 22]: 130%
- cell viability [2, 23]: 129%
- cell viability [2, 24]: 127%
- cell viability [2, 25]: 67%
- cell viability [2, 26]: 22.8%
- cell viability [2, 27]: 19.6%
- cell viability [2, 28]: 16%
- cell viability [2, 29]: 118%
- cell viability [2, 30]: 125%
- cell viability [2, 31]: 130%
- cell viability [2, 32]: 131%
- cell viability [2, 33]: 136%
- cell viability [2, 34]: 139%
- cell viability [2, 35]: 129%
- cell viability [2, 36]: 123%
- cell viability [2, 37]: 24.9%
- cell viability [2, 38]: 19.5%
- cell viability [2, 39]: 21.2%
- cell viability [3, 7]: 108%
- cell viability [3, 8]: 116%
- cell viability [3, 9]: 123%
- cell viability [3, 10]: 122%
- cell viability [3, 11]: 120%
- cell viability [3, 12]: 119%
- cell viability [3, 13]: 124%
- cell viability [3, 14]: 122%
- cell viability [3, 15]: 108%
- cell viability [3, 16]: 31.8%
- cell viability [3, 17]: 9.79%
- cell viability [3, 18]: 98.4%
- cell viability [3, 19]: 118%
- cell viability [3, 20]: 123%
- cell viability [3, 21]: 123%
- cell viability [3, 22]: 124%
- cell viability [3, 23]: 125%
- cell viability [3, 24]: 137%
- cell viability [3, 25]: 135%
- cell viability [3, 26]: 123%
- cell viability [3, 27]: 28.2%
- cell viability [3, 28]: 11%
- cell viability [3, 29]: 107%
- cell viability [3, 30]: 124%
- cell viability [3, 31]: 121%
- cell viability [3, 32]: 128%
- cell viability [3, 33]: 128%
- cell viability [3, 34]: 123%
- cell viability [3, 35]: 136%
- cell viability [3, 36]: 129%
- cell viability [3, 37]: 134%
- cell viability [3, 38]: 91.1%
- cell viability [3, 39]: 25.5%
- AUC of viability dose-response curve ([4]; HPLM + 10% dialyzed FBS): 457
- AUC of viability dose-response curve ([4]; RPMI 5 mM glucose + 10% FBS): 440
- AUC of viability dose-response curve [4, 40]: 464
- AUC of viability dose-response curve ([5]; HPLM + 10% dialyzed FBS): 368
- AUC of viability dose-response curve ([5]; RPMI 5 mM glucose + 10% FBS): 355
- AUC of viability dose-response curve [5, 40]: 376
- AUC of viability dose-response curve ([6]; HPLM + 10% dialyzed FBS): 416
- AUC of viability dose-response curve ([6]; RPMI 5 mM glucose + 10% FBS): 418
- AUC of viability dose-response curve [6, 40]: 445
